Source: US7534871B2, “Preparation and use of carbohydrate-based bicyclic ring structures with antimicrobial and cytostatic activity” (Kemin Pharma B.V.B.A., priority 2004, dated 2009)
Converted amounts (≈) assume the structure as drawn. Where two headings read alike, the source gives them in different places.

Assays:
[1] = test system: VRE ATCC700221; assay: Anti-bacterial activity, Bioscreen C growth curve: VRE; assay type: cell-based, vancomycin-resistant Enterococcus (VRE); conditions: Enterococcus, 35° C., 16 hours, negative control = 100, read-out: % of growth at 25 PPM compared to the negative control, VRE ATCC700221
Protocol: (§1) For the determination of the anti-bacterial and anti-fungal activity the Bioscreen C Analyser Labsystems, Finland, was used. This is an automated reader-incubator. It measures growth continuously by vertical photometry (optical density), processes the data and provides a print out of the results. The area under the growth curve is automatically determined via the Biolink software.
(§2) The inoculum size of the bacteria is standardized to approximately 5×10^5 CFU/ml.
(§3) For bacteria, the 100-honey-well plates containing test chemical, Mueller-Hinton broth and inoculum (=sample) are incubated at 35° C. for 16 hours. Also wells without inoculum are incubated (=blanco). Yeasts are incubated 35° C. for 24 hours in RPMI 1640+MOPS buffer at 165 mM. Moulds also in RPMI 1640+MOPS buffer at 165 mM are incubated 25° C. for 5 days. All micro-organisms are screened against a known concentration of the reference antibiotics or antimycotics such as vancomycin, penicillin G, gentamicin or amphotericin B. The growth curve and the area under the growth curve can be determined using the Biolink software; this is illustrated in FIG. 1.
(§4) The area of the blanco is subtracted from the area of the sample, this number (delta) gives us an indication of the biological activity of the molecules tested and can be expressed as a % of growth at a specific dose compared to a negative control that has a value of 100, illustrated in FIG. 2. Screening of each dose of a specific compound is repeated 5 times. The dose used for all new molecules in all tests is 25 PPM or 25 μg/ml.
(§5) In Table 4 the results of the anti-bacterial activity is given for the new molecules. The micro-organisms used are Staphylococcus aureus, MRSA, VRE, Enterococcus faecalis, Salmonella typhimurium and Pseudomonas aeruginosa.

[2] = test system: S. typhimurium ATTC700408; assay: Anti-bacterial activity, Bioscreen C growth curve: S. typhimurium; assay type: cell-based; conditions: Salmonella enterica, LMG16217 / TYPHIMURIUM, 35° C., 16 hours, negative control = 100, read-out: % of growth at 25 PPM compared to the negative control, S. typhimurium ATTC700408 LMG16217
Protocol: as §1, §2, §3, §4, §5

[3] = test system: Candida albicans IHEM 10284 - ATCC 24433; assay: Anti-fungal activity, Bioscreen C growth curve: Candida albicans (yeast); assay type: cell-based; conditions: Candida albicans, ATCC24433; 25 PPM; 35° C., 24 hours; negative control = 100; read-out: % of growth at a dose of 25 PPM compared to the negative control, Candida albicans IHEM 10284 - ATCC 24433
Protocol: as §1
The inoculum size of the yeast is standardized to 0.5-2.5×10^3 CFU/ml.
as §3, §4
(§6) In Table 5 the anti-fungal activity is given for the new molecules. The micro-organisms used were Candida albicans (a typical yeast) and Microsporum gypseum (a typical mold).
as §1, with “Also for” for “For”, “the” for “the anti-bacterial and”, “Labsystems Oy, Finland” for “Labsystems, Finland,”, “used.” for “used. This is an automated reader-incubator.”
(§7) The inoculum size of the yeast is standardized to 0.5-2.5×10^3 CFU/ml. The inoculum size of the mould is standardized to 0.4-5.0×10^4 CFU/ml. Yeasts are incubated 35° C. for 24 hours in RPMI 1640+MOPS buffer at 165 mM. Moulds also in RPMI 1640+MOPS buffer at 165 mM are incubated 25° C. for 5 days.
(§8) As a control, all micro-organisms are screened against some reference antibiotics with known MIC. Screening of each dose of a specific compound is repeated 5 times.

[4] = test system: CMV AD-169 strain; assay: Anti-CMV activity: plaque reduction in HEL cells, AD-169 strain; assay type: cell-based, human cytomegalovirus (CMV); conditions: Human betaherpesvirus 5, AD169, HEL, reduce virus plaque formation by 50%, virus input 100 PFU
[5] = test system: E. faecalis ATTC29212 LMG 8222; assay: Anti-bacterial activity, Bioscreen C growth curve: E. faecalis; assay type: cell-based; conditions: Enterococcus faecalis, LMG8222, 35° C., 16 hours, negative control = 100, read-out: % of growth at 25 PPM compared to the negative control, E. faecalis ATTC29212 LMG 8222
Protocol: as §1, §2, §3, §4, §5

[6] = test system: VZV OKA; assay: microbe, parasite or virus in culture; assay type: cell-based, varicella zoster virus (VZV); conditions: Human alphaherpesvirus 3, HEL, read-out: EC50 VZV (HEL) OKA
[7] = test system: murine mammary carcinoma cells (FM3A); assay: Cytostatic activity: inhibition of proliferation of FM3A cells; assay type: cell-based; conditions: Mus musculus, 50% inhibitory concentration, cell proliferation, read-out: IC50 FM3A/0
Protocol: (§9) The compounds were tested for anti-tumor activity via the inhibitory effects on the proliferation of murine leukemia cells (L1210/0), murine mammary carcinoma cells (FM3A), human T-lymphocyte cells (Molt4/C8, CEM/0) and human cervix carcinoma cells (HeLa).

[8] = test system: VV; assay: microbe, parasite or virus in culture; assay type: cell-based; conditions: Orthopoxvirus vaccinia, E6SM, read-out: EC50 VV (E6SM)
[9] = test system: HIV-2 (ROD); assay: Anti-viral activity: HIV-2-induced cytopathicity in human CEM cell cultures; assay type: cell-based; conditions: Human immunodeficiency virus 2, CCRF-CEM; concentration required to inhibit HIV-induced cytopathicity in human CEM cell cultures by 50%
[10] = test system: P. aeruginosa ATCC27853 LMG16217; assay: Anti-bacterial activity, Bioscreen C growth curve: P. aeruginosa; assay type: cell-based, Pseudomonas aeruginosa; conditions: Pseudomonas aeruginosa; 25 PPM; 35° C., 16 hours; negative control = 100; read-out: % of growth at 25 PPM compared to the negative control, P. aeruginosa ATCC27853 LMG16217
Protocol: as §1, §2, §3, §4, §5

[11] = test system: human T-lymphocyte cells (CEM/0); assay: Cytostatic activity: inhibition of proliferation of CEM/0 cells; assay type: cell-based; conditions: CCRF-CEM, 50% inhibitory concentration, cell proliferation, read-out: IC50 CEM/0
Protocol: as §9

[12] = test system: VZV YS; assay: Anti-viral activity: VZV-induced plaque formation in HEL cell cultures, YS strain; assay type: cell-based, varicella zoster virus (VZV); conditions: Human alphaherpesvirus 3, VZV-induced plaque formation in human embryonic lung HEL cell cultures, 50%
[13] = test system: MRSA ATCC33591; assay: Anti-bacterial activity, Bioscreen C growth curve: MRSA; assay type: cell-based, methicillin-resistant Staphylococcus aureus (MRSA); conditions: Staphylococcus aureus, ATCC 33591 / LMG10147 / MRSA; 25 PPM; 35° C., 16 hours; negative control = 100; read-out: % of growth at 25 PPM compared to the negative control, MRSA ATCC33591 LMG10147
Protocol: as §1, §2, §3, §4, §5

[14] = test system: human cervix carcinoma cells (HeLa); assay: Cytostatic activity: inhibition of proliferation of HeLa cells; assay type: cell-based; conditions: 50% inhibitory concentration, cell proliferation
Protocol: as §9

[15] = test system: HSV-1 (KOS); assay: Anti-viral activity: HSV-1-induced cytopathicity in human embryo fibroblast E6SM cell cultures; assay type: cell-based, herpes simplex virus (HSV); conditions: Human alphaherpesvirus 1, 50%
[16] = test system: HIV-1 (IIIB); assay: microbe, parasite or virus in culture; assay type: cell-based; conditions: Human immunodeficiency virus 1, IIIB, CCRF-CEM; concentration required to inhibit HIV-induced cytopathicity in human CEM cell cultures by 50%
[17] = test system: murine leukemia cells (L1210/0); assay: Cytostatic activity: inhibition of proliferation of L1210/0 cells; assay type: cell-based; conditions: Mus musculus, L1210/0; 50% inhibitory concentration, cell proliferation; read-out: IC50 L1210/0
Protocol: as §9

[18] = test system: Microsporum gypseum IHEM 3999 - ATCC 14683; assay: Anti-fungal activity, Bioscreen C growth curve: Microsporum gypseum (mold); assay type: cell-based; conditions: Nannizzia gypsea, ATCC14683, 120 h; 25 PPM; 25° C., 5 days; negative control = 100; read-out: % of growth at a dose of 25 PPM compared to the negative control, Microsporum gypseum IHEM 3999 - ATCC 14683
Protocol: as §1
The inoculum size of the mould is standardized to 0.4-5.0×10^4 CFU/ml.
as §3, §4, §6
as §1, with “Also for” for “For”, “the” for “the anti-bacterial and”, “Labsystems Oy, Finland” for “Labsystems, Finland,”, “used.” for “used. This is an automated reader-incubator.”
as §7, §8

[19] = test system: S. aureus ATTC29213 LMG10147; assay: Anti-bacterial activity, Bioscreen C growth curve: S. aureus; assay type: cell-based; conditions: Staphylococcus aureus, 35° C., 16 hours, negative control = 100, read-out: % of growth at 25 PPM compared to the negative control, S. aureus ATTC29213 LMG10147
Protocol: as §1, §2, §3, §4, §5

[20] = test system: human T-lymphocyte cells (Molt4/C8); assay: Cytostatic activity: inhibition of proliferation of Molt4/C8 cells; assay type: cell-based; conditions: Molt4/C8, 50% inhibitory concentration, cell proliferation, read-out: IC50 Molt4/C8
Protocol: as §9

[21] = test system: HSV-2 (G); assay: Anti-viral activity: HSV-2-induced cytopathicity in human embryo fibroblast E6SM cell cultures; assay type: cell-based, herpes simplex virus (HSV); conditions: Human alphaherpesvirus 2, 50%
[22] = test system: HEL cells; assay: Cytotoxicity: alteration of cell morphology (MCC); assay type: cell-based, human; conditions: minimum cytotoxic concentration that causes a microscopically detectable alteration of cell morphology
[23] = Cytotoxicity: inhibition of HEL cell growth (CC50); assay type: cell-based; conditions: human; concentration required to reduce cell growth by 50%; HEL cells, three days
Protocol: The medium was then replaced by MEM containing various concentrations of the test compound. After three days incubation at 37° C., when the cell monolayer was 70% confluent, the cell number was determined with the Coulter counter. The minimum cytotoxic concentration was defined as the concentration required to reduce cell growth by 50%.

[24] = test system: CMV Davis strain; assay: Anti-CMV activity: plaque reduction in HEL cells, Davis strain; assay type: cell-based, human cytomegalovirus (CMV); conditions: Human betaherpesvirus 5, HEL; Table 6; reduce virus plaque formation by 50%; virus input 100 PFU; read-out: Anti-CMV activity IC50 Davis strain
[25] = Table 6, read-out: Anti-CMV activity IC50 AD-169 strain

`CO[C@@H]1[C@@H](OC)[C@H](c2ccccc2)O[C@@H]2COC(=O)CC/C=C/CCC(=O)O[C@@H]12` [KPE00001018] gave an activity at 25 ppm [1] of 94.5%, an activity at 25 ppm [2] of 96.6% and an activity at 25 ppm [3] of 93.5%. It also gave an IC50 ([4]; Table 2, read-out: IC50 CMV AD-169 Strain) of over 20 µg/mL, an activity at 25 ppm [5] of 94.9% and an EC50 [6] of over 50 µg/mL. For the same compound, the IC50 [7] was over 200 µg/mL, the EC50 [8] was over 16 µg/mL and the EC50 [9] was over 100 µg/mL. It also gave an activity at 25 ppm [10] of 59.8%, an IC50 [11] of 132 ± 13 µg/mL (≈ 326 µM) and an EC50 [12] of over 50 µg/mL. It also gave an activity at 25 ppm [13] of 100%, an IC50 [14] of over 200 µg/mL and an EC50 [15] of over 16 µg/mL. It also gave an EC50 [16] of over 20 µg/mL, an IC50 [17] of over 200 µg/mL and an activity at 25 ppm [18] of 79%. It also gave an activity at 25 ppm [19] of 100%, an IC50 [20] of over 200 µg/mL and an EC50 [21] of over 16 µg/mL.

`CO[C@@H]1[C@@H](OC)[C@H](Sc2ccccc2)O[C@@H]2CO[C@@H](c3ccccc3)O[C@@H]12` [KPE00001045] gave an IC50 [4, 25] of over 5 µg/mL, an EC50 [6] of over 2 µg/mL and an IC50 [7] of over 200 µg/mL. For the same compound, the “Cytotoxicity Cell morphology (MCC)” value [22] was 20 μg/ml, the EC50 [8] was over 3.2 µg/mL and the IC50 [11] was over 200 µg/mL. For the same compound, the EC50 [12] was over 2 µg/mL, the CC50 at 3 days [23] was 50 µg/mL (≈ 129 µM) and the EC50 [15] was over 3.2 µg/mL. It also gave an IC50 [17] of over 200 µg/mL, an IC50 [20] of over 200 µg/mL and an IC50 [24] of over 5 µg/mL. It also gave an EC50 [21] of over 3.2 µg/mL.

In the case of `O[C@@H]1[C@@H](O)[C@H](Sc2ccccc2)O[C@@H]2CO[C@@H](c3ccccc3)O[C@@H]12` [KPE00001048], the IC50 [4, 25] is reported as 33 µg/mL (≈ 91.6 µM), the EC50 [6] is reported as over 50 µg/mL and the IC50 [7] is reported as 171 ± 41 µg/mL (≈ 474 µM). For the same compound, the “Cytotoxicity Cell morphology (MCC)” value [22] was over 50 μg/ml, the EC50 [8] was over 80 µg/mL and the IC50 [11] was 75 ± 31 µg/mL (≈ 208 µM). For the same compound, the EC50 [12] was over 50 µg/mL, the CC50 at 3 days [23] was over 50 µg/mL and the EC50 [15] was over 80 µg/mL. For the same compound, the IC50 [17] was 103 ± 10 µg/mL (≈ 286 µM), the IC50 [20] was 78 ± 12 µg/mL (≈ 216 µM) and the IC50 [24] was 35 µg/mL (≈ 97.1 µM). For the same compound, the EC50 [21] was over 80 µg/mL.
